Measurements as given in PubChem BioAssay (NCI).
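Protocol summary: plate cells (96-well), add compound at 5 concentrations, incubate 48 h, interpolate endpoints linearly. At the GI50, growth is halved. The concentration for full growth arrest is given as TGI.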

Tests used:
Experiment in all cases: NCI-60 cell line screen, 48 h
786-0 renal = system: 786-0 renal
HOP-62 NSCLC = system: HOP-62 NSCLC
NCI-H23 lung = system: NCI-H23 lung
LOX IMVI melanoma = system: LOX IMVI melanoma
SF-539 CNS = system: SF-539 CNS
UACC-62 melanoma = system: UACC-62 melanoma
HCC-2998 colon = system: HCC-2998 colon
HT29 colon = system: HT29 colon
KM12 colon = system: KM12 colon
HCT-15 colon = system: HCT-15 colon

Compound	GI50 (786-0 renal)	TGI (786-0 renal)	GI50 (HOP-62 NSCLC)	TGI (HOP-62 NSCLC)	GI50 (NCI-H23 lung)	TGI (NCI-H23 lung)	GI50 (LOX IMVI melanoma)	TGI (LOX IMVI melanoma)	GI50 (SF-539 CNS)	TGI (SF-539 CNS)	GI50 (UACC-62 melanoma)	TGI (UACC-62 melanoma)	GI50 (HCC-2998 colon)	TGI (HCC-2998 colon)	GI50 (HT29 colon)	TGI (HT29 colon)	GI50 (KM12 colon)	TGI (KM12 colon)	GI50 (HCT-15 colon)	TGI (HCT-15 colon)
CO/N=C(\COc1ccc2c(c1)[nH]c1ccccc12)c1ccc(OC)cc1	7.18 µM	> 100 µM	6.26 µM	64 µM	32.2 µM	> 100 µM	19.6 µM	> 100 µM	13.8 µM	> 100 µM	26.6 µM	> 100 µM	> 100 µM	> 100 µM	4.36 µM	> 100 µM	> 100 µM	> 100 µM	> 100 µM	> 100 µM
O=c1cc(-c2cccs2)[nH]c2cc3c(cc12)OCO3	–	> 41.3 µM	–	39.4 µM	–	> 100 µM	–	> 100 µM	–	12.7 µM	–	> 25 µM	–	> 51.6 µM	–	> 74.7 µM	–	> 100 µM	–	> 100 µM
C/C(=N/O)c1cccc(Nc2cc(-n3nnc4ccccc43)nc3ccccc23)c1	4.84 µM	31.3 µM	20.5 µM	44.2 µM	15.7 µM	35.5 µM	24.2 µM	93 µM	1.62 µM	5.88 µM	12.7 µM	34 µM	10.5 µM	23.2 µM	12.3 µM	> 100 µM	9.48 µM	28.4 µM	11.4 µM	32.8 µM
O=C(/C=C/c1ccccc1)Oc1cccc2cccnc12	–	> 100 µM	–	> 100 µM	–	20 µM	–	> 100 µM	–	30.5 µM	–	27.1 µM	–	> 100 µM	–	29.3 µM	–	32.1 µM	–	26.2 µM
O=C(O)c1nc(NCc2nc3cc(Cl)ccc3o2)n[nH]1	> 100 µM	> 100 µM	> 100 µM	> 100 µM	> 100 µM	> 100 µM	> 100 µM	> 100 µM	> 100 µM	> 100 µM	> 100 µM	> 100 µM	> 100 µM	> 100 µM	> 100 µM	> 100 µM	> 100 µM	> 100 µM	> 100 µM	> 100 µM
N#CC(C#N)=C/C=C(\Cl)c1ccc(Cl)cc1	4.56 µM	15.7 µM	14.3 µM	31.3 µM	2.66 µM	9.04 µM	1.18 µM	–	4.66 µM	15.9 µM	6.13 µM	22.8 µM	6.75 µM	19.9 µM	0.98 µM	–	15 µM	44.1 µM	4.5 µM	> 42.2 µM
COc1cc2c(c3c1c(=O)c1ccccc1n3C)C=CC1(CCCC1)O2	–	25.1 µM	–	28.7 µM	–	28.6 µM	–	27.3 µM	–	17.3 µM	–	29.1 µM	–	37.7 µM	–	19.7 µM	–	25.3 µM	–	35.5 µM
N#CC(N)=Nc1ccccc1	–	> 100 µM	–	> 100 µM	–	> 100 µM	–	> 100 µM	–	> 100 µM	–	> 100 µM	–	> 100 µM	–	> 100 µM	–	> 100 µM	–	> 100 µM
O=C(COc1ccccc1Cl)N1N=C(c2ccc(Cl)cc2)CC1(O)c1ccccc1 (centres undefined)	–	> 100 µM	–	> 100 µM	–	> 100 µM	–	> 100 µM	–	> 100 µM	–	> 100 µM	–	> 100 µM	–	> 100 µM	–	> 100 µM	–	> 100 µM
CC1=C(C(=O)Nc2ccccc2C)C(c2ccc(Cl)cc2)C(C(=O)Nc2ccccc2C)=C(C)N1	–	> 100 µM	–	> 100 µM	–	> 100 µM	–	> 100 µM	–	> 100 µM	–	> 100 µM	–	> 100 µM	–	> 100 µM	–	> 100 µM	–	> 100 µM
CCSCCCSCCSCC	–	> 100 µM	–	> 100 µM	–	> 100 µM	–	> 100 µM	–	> 100 µM	–	> 100 µM	–	> 100 µM	–	> 100 µM	–	> 100 µM	–	> 100 µM
CCC1(O)C(=O)OCc2c1cc1n(c2=O)Cc2cc3ccccc3nc2-1 (centres undefined)	–	0.203 µM	–	0.319 µM	–	0.0806 µM	–	1.33 µM	0.0107 µM	> 100 µM	–	0.0379 µM	–	11.2 µM	–	0.394 µM	–	> 100 µM	–	17.1 µM
Cc1c(/C=N/NC(=O)c2ccccc2O)c(=O)n(-c2ccccc2)n1C	–	> 100 µM	–	> 100 µM	–	> 100 µM	–	> 100 µM	–	> 100 µM	–	> 100 µM	–	> 100 µM	–	> 100 µM	–	> 100 µM	–	> 100 µM
O=C1/C(=C/c2ccc([N+](=O)[O-])cc2)CN(C(=O)CCN2CCC(=NO)CC2)C/C1=C\c1ccc([N+](=O)[O-])cc1	1.06 µM	3.66 µM	1.91 µM	6.97 µM	1.53 µM	4.58 µM	0.296 µM	0.739 µM	0.969 µM	2.91 µM	0.866 µM	2.49 µM	1 µM	2.62 µM	0.477 µM	1.93 µM	0.448 µM	1.18 µM	0.771 µM	3.9 µM
CCCN1C(=O)NC(=O)C(CC)(N2C(=O)c3c(F)c(F)c(F)c(F)c3C2=O)C1=O (centres undefined)	2.66 µM	7.75 µM	2.04 µM	4.4 µM	2.17 µM	5.77 µM	1.66 µM	4.34 µM	1.92 µM	4.14 µM	1.99 µM	5.94 µM	1.8 µM	3.93 µM	1.4 µM	3.62 µM	1.42 µM	2.84 µM	1.85 µM	6.82 µM
O=C(NCC1CC1)c1ccc(-c2cccc(C(=O)NC3CC3)c2)cc1	> 25 µM	> 25 µM	> 25 µM	> 25 µM	> 25 µM	> 25 µM	> 25 µM	> 25 µM	> 25 µM	> 25 µM	> 25 µM	> 25 µM	> 25 µM	> 25 µM	> 25 µM	> 25 µM	> 25 µM	> 25 µM	> 25 µM	> 25 µM
O=C1C[C@H]2CCCN2[C@@H](c2ccccc2)C1	–	> 100 µM	–	> 100 µM	–	> 100 µM	–	> 100 µM	–	> 100 µM	–	> 100 µM	–	> 100 µM	–	> 100 µM	–	> 100 µM	–	> 100 µM
